Source: patent publication US5563155A, “Individual stereosiomers of 7-[3-(aminoalkyl)-1-pyrrolidinyl]-quinolones and naphthyridones as antibacterial agents” (Warner-Lambert Company, priority 1995, dated 1996)
Values after ≈ are worked out from the molar mass of the structure shown. Read-outs that look alike come from different tables or passages of the source.

Tests used:
Ent. cloacae MA2646 = assay: in vitro antibacterial activity, microtitration dilution (MIC), Ent. cloacae MA2646; format: cell-based; details: Enterobacter cloacae, read-out: minimum inhibiting concentration (MIC)
Outline: (§1)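 MICs (μg/mL) determined by microtitration broth dilution following the Heifetz et al. method.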

Esch. coli Vogel [1] = assay: in vitro antibacterial activity, microtitration dilution (MIC), Esch. coli Vogel; format: cell-based; details: Escherichia coli, read-out: minimum inhibiting concentration (MIC)
Outline: as §1

Klebs. pneumoniae MGH-2 = assay: in vitro antibacterial activity, microtitration dilution (MIC), Klebs. pneumoniae MGH-2; format: cell-based; details: Klebsiella pneumoniae, MGH2, read-out: minimum inhibiting concentration (MIC)
Outline: as §1

Prot. rettgeri M 1771 = assay: in vitro antibacterial activity, microtitration dilution (MIC), Prot. rettgeri M 1771; format: cell-based; details: Providencia rettgeri, M1771, read-out: minimum inhibiting concentration (MIC)
Outline: as §1

Pseud. aeruginosa UI-18 = assay: in vitro antibacterial activity, microtitration dilution (MIC), Pseud. aeruginosa UI-18; format: cell-based; details: Pseudomonas aeruginosa, UI18, read-out: minimum inhibiting concentration (MIC)
Outline: as §1

Staph. aureus H 228 = assay: in vitro antibacterial activity, microtitration dilution (MIC), Staph. aureus H 228; format: cell-based; details: Staphylococcus aureus, H228, read-out: minimum inhibiting concentration (MIC)
Outline: as §1

Staph. aureus UC-76 = assay: in vitro antibacterial activity, microtitration dilution (MIC), Staph. aureus UC-76; format: cell-based; details: Staphylococcus aureus, UC76, read-out: minimum inhibiting concentration (MIC)
Outline: as §1

Strep. faecalis MGH-2 = assay: in vitro antibacterial activity, microtitration dilution (MIC), Strep. faecalis MGH-2; format: cell-based; details: Enterococcus faecalis, MGH2, read-out: minimum inhibiting concentration (MIC)
Outline: as §1

Strep. pheumoniae SV-1 [2] = assay: in vitro antibacterial activity, microtitration dilution (MIC), Strep. pneumoniae SV-1; format: cell-based; details: Streptococcus pneumoniae, SV1, read-out: minimum inhibiting concentration (MIC)
Outline: as §1

Strep. pyogenes C-203 [3] = assay: in vitro antibacterial activity, microtitration dilution (MIC), Strep. pyogenes C-203; format: cell-based; details: Streptococcus pyogenes, C203, read-out: minimum inhibiting concentration (MIC)
Outline: as §1

Esch. coli Vogel [4] = assay: median protective dose in mice given lethal systemic infections, Esch. coli Vogel; format: in vivo; details: Escherichia coli, single dose at time of challenge, read-out: median protective dose (PD50)
Protocol: (§2) The in vivo activity is obtained when the compounds are tested according to the procedure of Miller, et al (Proc. Soc. Exp. Biol. Med. 57, 261, 1944). The median protective dose (PD50) was determined in mice given lethal systemic infections. Single doses of compound were given at time of challenge.
(§3) By use of the above methods, the following minimum inhibiting concentration values (MICs in μg/mL), PD50 's in mg/kg, no effect phototoxicity dose in mg/kg and the cytotoxicity IC50 in μg/mL were obtained for representative enantiomers of the invention and compounds of the prior art as shown in the table.
(§4) The in vivo data as PD50 s are reported below the line of MICs for the same compound.

Strep. pyogenes C-203 [5] = assay: median protective dose in mice given lethal systemic infections, Strep. pyogenes C-203; format: in vivo; details: Streptococcus pyogenes, single dose at time of challenge, read-out: median protective dose (PD50)
Protocol: as §2, §3, §4

in vivo = assay: in vivo; parameters: species or system mice; details: mouse, po
Protocol: The phototoxicity data is obtained using depilated mice. The compound was administered orally each day for four successive days, followed each day by 3 hours of UVA radiation. The mice were examined for any positive signs (redness, erythema) relative to control animals. The no effect dose and the 50% effect dose were determined. By use of the above methods, the following minimum inhibiting concentration values (MICs in μg/mL), PD50 's in mg/kg, no effect phototoxicity dose in mg/kg and the cytotoxicity IC50 in μg/mL were obtained for representative enantiomers of the invention and compounds of the prior art as shown in the table.

[6] = cytotoxicity, hamster V-79 cells, colony reduction; format: cell-based; details: 3 hours treatment, colonies counted after 5 days, read-out: Cytotox (cytotoxicity IC50)
Protocol: The cytotoxicity data is obtained using hamster V-79 cells. The cells were suspended in tissue culture medium and grown overnight. Cells were treated with drug for 3 hours, washed free of drug and then replated, and the colonies counted after 5 days. The concentration of drug that reduced colones by 50% relative to control was recorded.
as §3

Strep. pheumoniae SV-1 [7] = assay: median protective dose in mice given lethal systemic infections, Strep. pneumoniae SV-1; format: in vivo; details: Streptococcus pneumoniae, single dose at time of challenge, read-out: median protective dose (PD50)
Protocol: as §2, §3, §4

Row | Structure (SMILES) | MIC (Ent. cloacae MA2646) [µg/mL] | MIC (Esch. coli Vogel [1]) [µg/mL] | MIC (Klebs. pneumoniae MGH-2) [µg/mL] | MIC (Prot. rettgeri M 1771) [µg/mL] | MIC (Pseud. aeruginosa UI-18) [µg/mL] | MIC (Staph. aureus H 228) [µg/mL] | MIC (Staph. aureus UC-76) [µg/mL] | MIC (Strep. faecalis MGH-2) [µg/mL] | MIC (Strep. pheumoniae SV-1 [2]) [µg/mL] | MIC (Strep. pyogenes C-203 [3]) [µg/mL] | ED50 (Esch. coli Vogel [4]; PO) [mg/kg] | ED50 (Esch. coli Vogel [4]; SC) [mg/kg] | ED50 (Strep. pyogenes C-203 [5]; C203, PO) [mg/kg] | ED50 (Strep. pyogenes C-203 [5]; C203, SC) [mg/kg] | NOAEL at 96 h (in vivo) [mg/kg] | CC50 at 3 h [6] [µg/mL] | ED50 (Strep. pheumoniae SV-1 [7]; SV1, PO) [mg/kg] | ED50 (Strep. pheumoniae SV-1 [7]; SV1, SC) [mg/kg]
1 | CCN[C@H](C)[C@@H]1CCN(c2c(F)cc3c(=O)c(C(=O)O)cn(C4CC4)c3c2OC)C1 [Example 17] | 0.2 (≈ 0.479 µM) | 0.2 (≈ 0.479 µM) | 0.4 (≈ 0.958 µM) | 0.8 (≈ 1.92 µM) | 3.1 (≈ 7.43 µM) | 0.013 (≈ 0.0311 µM) | 0.003 (≈ 0.00719 µM) | 0.013 (≈ 0.0311 µM) | 0.003 (≈ 0.00719 µM) | 0.003 (≈ 0.00719 µM) | 14 | 4 | 2 | 0.6 | > 100 | 130 (≈ 311 µM) |  | 
2 | CN[C@@H](C)[C@@H]1CCN(c2c(F)c(N)c3c(=O)c(C(=O)O)cn(C4CC4)c3c2F)C1 [Example 42, 3R,1S-5-amino-1-cyclopropyl-6,8-difluoro-7-[3-(1-N-methylaminoethyl)-1-pyrrolidinyl]-1,4-dihydro-4-oxo-3-quinoline carboxylic acid] | 0.025 (≈ 0.0615 µM) | 0.025 (≈ 0.0615 µM) | 0.05 (≈ 0.123 µM) | 0.1 (≈ 0.246 µM) | 0.8 (≈ 1.97 µM) | 0.006 (≈ 0.0148 µM) | 0.003 (≈ 0.00738 µM) | 0.013 (≈ 0.032 µM) | 0.006 (≈ 0.0148 µM) | 0.006 (≈ 0.0148 µM) | 3 | 0.4 | 0.55 | 0.25 | < 30 | 17 (≈ 41.8 µM) |  | 
3 | C[C@@H]([C@@H]1CCN(c2cc3c(cc2F)c(=O)c(C(=O)O)cn3C2CC2)C1)N(C)C [Example 73] | 0.2 (≈ 0.516 µM) | 0.1 (≈ 0.258 µM) | 0.2 (≈ 0.516 µM) | 0.8 (≈ 2.06 µM) | 1.6 (≈ 4.13 µM) | 0.1 (≈ 0.258 µM) | 0.05 (≈ 0.129 µM) | 0.1 (≈ 0.258 µM) | 0.05 (≈ 0.129 µM) | 0.05 (≈ 0.129 µM) | 5 | 4 | 4 | 4 | < 30 |  |  | 
4 | CN[C@@H](C)[C@@H]1CCN(c2c(F)cc3c(=O)c(C(=O)O)cn(C4CC4)c3c2OC)C1 [Example 36, 3R,1S-1-cyclopropyl-6-fluoro-7-[3-(1-N-methylaminoethyl)-1-pyrrolidinyl]-8-methoxy-1,4-dihydro-4-oxo-3-quinolinecarboxylic acid] | 0.05 (≈ 0.124 µM) | 0.05 (≈ 0.124 µM) | 0.1 (≈ 0.248 µM) | 0.2 (≈ 0.496 µM) | 0.8 (≈ 1.98 µM) | 0.013 (≈ 0.0322 µM) | 0.013 (≈ 0.0322 µM) | 0.025 (≈ 0.062 µM) | 0.013 (≈ 0.0322 µM) | 0.003 (≈ 0.00744 µM) | 4 | 1 | 1 | 0.1 | > 100 | 33 (≈ 81.8 µM) |  | 
5 | CCN[C@@H](C)[C@@H]1CCN(c2nc3c(cc2F)c(=O)c(C(=O)O)cn3-c2ccc(F)cc2F)C1 [Example 50, 3R,1S-7-[3-(1-N-ethylaminoethyl)-1-pyrrolidinyl]-1-(2,4-difluorophenyl)-6-fluoro-1,4-dihydro-4-oxo-1,8-naphthyridine-3-carboxylic acid] | 0.8 (≈ 1.74 µM) | 0.4 (≈ 0.869 µM) | 0.8 (≈ 1.74 µM) | 1.6 (≈ 3.47 µM) | 3.1 (≈ 6.73 µM) | 0.05 (≈ 0.109 µM) | 0.013 (≈ 0.0282 µM) | 0.2 (≈ 0.434 µM) | 0.1 (≈ 0.217 µM) | 0.1 (≈ 0.217 µM) |  |  |  |  |  |  | 2 | 2
6 | C[C@H](N)[C@@H]1CCN(c2nc3c(cc2F)c(=O)c(C(=O)O)cn3C2CC2)C1 (relative stereo) [reference compound] | 0.05 (≈ 0.139 µM) |  | 0.1 (≈ 0.277 µM) | 0.2 (≈ 0.555 µM) |  | 0.05 (≈ 0.139 µM) |  | 0.05 (≈ 0.139 µM) |  |  |  |  |  |  | 55 | 48 (≈ 133 µM) |  | 
